Results from patent publication US9695154B2, “Heteroaryl inhibitors of sumo activating enzyme” (MILLENNIUM PHARMACEUTICALS, INC., priority 2013, dated 2017).

Target: T1, recombinant human SAE enzyme (Homo sapiens, UniProt Q9UBT2)
T1 sequence (Q9UBT2 1-640): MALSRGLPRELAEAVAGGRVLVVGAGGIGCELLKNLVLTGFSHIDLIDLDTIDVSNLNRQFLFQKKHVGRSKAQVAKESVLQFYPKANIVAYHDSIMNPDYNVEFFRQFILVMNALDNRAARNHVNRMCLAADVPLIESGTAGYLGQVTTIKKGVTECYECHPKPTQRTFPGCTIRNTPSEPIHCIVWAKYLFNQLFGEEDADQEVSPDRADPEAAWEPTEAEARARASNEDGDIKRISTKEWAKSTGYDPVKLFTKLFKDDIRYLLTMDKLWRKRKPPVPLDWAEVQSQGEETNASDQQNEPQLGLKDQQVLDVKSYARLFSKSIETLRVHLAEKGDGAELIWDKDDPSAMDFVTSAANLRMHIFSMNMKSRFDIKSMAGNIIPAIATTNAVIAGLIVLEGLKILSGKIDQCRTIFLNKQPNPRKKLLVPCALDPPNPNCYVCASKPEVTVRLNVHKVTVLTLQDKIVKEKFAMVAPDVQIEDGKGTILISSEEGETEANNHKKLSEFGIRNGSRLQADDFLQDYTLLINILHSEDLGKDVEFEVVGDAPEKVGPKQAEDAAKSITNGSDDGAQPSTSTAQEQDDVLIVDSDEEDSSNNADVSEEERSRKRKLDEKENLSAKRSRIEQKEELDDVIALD
T1 sequence (Q9UBE0 1-346 partner): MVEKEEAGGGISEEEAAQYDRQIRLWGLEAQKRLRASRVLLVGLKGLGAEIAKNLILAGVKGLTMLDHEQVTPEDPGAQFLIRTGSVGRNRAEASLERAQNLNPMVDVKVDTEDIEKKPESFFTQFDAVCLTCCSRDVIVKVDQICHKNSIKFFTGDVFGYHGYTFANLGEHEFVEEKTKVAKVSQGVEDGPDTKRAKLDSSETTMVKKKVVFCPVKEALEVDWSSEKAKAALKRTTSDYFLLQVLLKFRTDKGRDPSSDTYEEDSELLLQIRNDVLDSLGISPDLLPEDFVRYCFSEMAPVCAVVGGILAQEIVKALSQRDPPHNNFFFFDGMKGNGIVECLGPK
Assay: SAE HTRF Enzyme Assay
Type: biochemical
Settings: for IC50: class symbols A-C; for inhibition at 0.111 µM: compound concentration 0.111 μM, read-out: Percent Inhibition
Summary of the method: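 SAE 0.11 nM; ATP 0.5 μM; Sumo-Flag 0.125 μM; Ubc9-GST 0.01 μM; 250 μM GSH, 5 mM MgCl2, pH 7.5. 105 min, 24° C. EDTA/KF stop plus Eu/APC antibodies, 2 h, TR-FRET. % inhibition or IC50.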

Row | SMILES | IC50 | inhibition at 0.111 µM
1 | Cn1cccc(Cn2ccc(C(=O)c3cncnc3N[C@@H]3C[C@H](COS(N)(=O)=O)[C@@H](O)[C@@H]3F)c2)c1=O [Compound I-216, [(1R,2R,3R,4R)-3-fluoro-2-hydroxy-4-{[5-({1-[(1-methyl-2-oxo-1,2-dihydropyridin-3-yl)methyl]-1H-pyrrol-3-yl}carbonyl)pyrimidin-4-yl]amino}cyclopentyl]methyl sulfamate] | < 10 nM | 97%
2 | NS(=O)(=O)OC[C@H]1C[C@@H](Nc2ncncc2C(=O)c2ccn(Cc3cccc(Br)c3)c2)C[C@@H]1O [Compound I-333, {(1R,2S,4R)-4-[(5-{[1-(3-bromobenzyl)-1H-pyrrol-3-yl]carbonyl}pyrimidin-4-yl)amino]-2-hydroxycyclopentyl}methyl sulfamate] | < 10 nM | 99%
3 | Cc1ccc(F)c(Cn2ccc(C(=O)c3cncnc3N[C@@H]3C[C@H](COS(N)(=O)=O)[C@@H](O)C3)n2)c1 [Compound I-32, {(1R,2S,4R)-4-[(5-{[1-(2-fluoro-5-methylbenzyl)-1H-pyrazol-3-yl]carbonyl}pyrimidin-4-yl)amino]-2-hydroxycyclopentyl}methyl sulfamate] | < 10 nM | 98%
4 | NS(=O)(=O)OC[C@H]1C[C@@H](Nc2ncncc2C(=O)c2ccn(Cc3ccccc3)n2)[C@@H](O)[C@@H]1O [Compound I-135, [(1R,2R,3R,4R)-4-({5-[(1-Benzyl-1H-pyrazol-3-yl)carbonyl]pyrimidin-4-yl}amino)-2,3-dihydroxycyclopentyl]methyl sulfamate] | 10 to 100 nM | 81%
5 | NS(=O)(=O)OC[C@H]1C[C@@H](Nc2ncncc2C(=O)c2ccn(/C=C\c3ccccc3)c2)C[C@@H]1O [Compound I-200, [(1R,2S,4R)-2-Hydroxy-4-{[5-({1-[(Z)-2-phenylvinyl]-1H-pyrrol-3-yl}carbonyl)pyrimidin-4-yl]amino}cyclopentyl]methyl sulfamate] | < 10 nM | 98%
6 | NS(=O)(=O)OC[C@H]1C[C@@H](Nc2ncncc2C(=O)c2ccn(CC#CC3CC3)n2)C[C@@H]1O [Compound I-287, {(1R,2S,4R)-4-[(5-{[1-(3-cyclopropylprop-2-yn-1-yl)-1H-pyrazol-3-yl]carbonyl}pyrimidin-4-yl)amino]-2-hydroxycyclopentyl}methyl sulfamate] | < 10 nM | 95%
7 | Cc1cc(C(=O)c2cncnc2N[C@@H]2C[C@@H](COS(N)(=O)=O)[C@@H](O)C2)nn1Cc1cccc(Br)c1 [Compound I-6, {(1S,2S,4R)-4-[(5-{[1-(3-bromobenzyl)-5-methyl-1H-pyrazol-3-yl]carbonyl}pyrimidin-4-yl)amino]-2-hydroxycyclopentyl}methyl sulfamate] | < 10 nM | 99%
8 | NS(=O)(=O)OC[C@H]1C[C@@H](Nc2ncncc2C(=O)c2ccn(Cc3cc(Br)ccc3F)n2)C[C@@H]1O [Compound I-346, {(1R,2S,4R)-4-[(5-{[1-(5-bromo-2-fluorobenzyl)-1H-pyrazol-3-yl]carbonyl}pyrimidin-4-yl)amino]-2-hydroxycyclopentyl}methyl sulfamate] | < 10 nM | 100%
9 | NS(=O)(=O)OC[C@H]1C[C@@H](Nc2ncncc2C(=O)c2ccn(Cc3ccc(F)c(C(F)(F)F)c3)n2)[C@H](O)[C@@H]1O [Compound I-343, [(1R,2R,3S,4R)-4-{[5-({1-[4-fluoro-3-(trifluoromethyl)benzyl]-1H-pyrazol-3-yl}carbonyl)pyrimidin-4-yl]amino}-2,3-dihydroxycyclopentyl]methyl sulfamate] | < 10 nM | 97%
10 | NS(=O)(=O)OC[C@H]1C[C@@H](Nc2ncncc2C(=O)c2ccn(Cc3ccccc3OC(F)(F)F)n2)C[C@@H]1O [Compound I-39, [(1R,2S,4R)-2-hydroxy-4-{[5-({1-[2-(trifluoromethoxy)benzyl]-1H-pyrazol-3-yl}carbonyl)pyrimidin-4-yl]amino}cyclopentyl]methyl sulfamate] | < 10 nM | 98%
11 | NS(=O)(=O)OC[C@H]1C[C@@H](Nc2ncncc2C(=O)c2ccn(Cc3ccc(Cl)c(Cl)c3)n2)C[C@@H]1O [Compound I-58, {(1R,2S,4R)-4-[(5-{[1-(3,4-dichlorobenzyl)-1H-pyrazol-3-yl]carbonyl}pyrimidin-4-yl)amino]-2-hydroxycyclopentyl}methyl sulfamate] | < 10 nM | 88%
12 | Cc1ccnc(Cn2ccc(C(=O)c3cncnc3N[C@@H]3C[C@H](COS(N)(=O)=O)[C@@H](O)C3)n2)c1 [Compound I-162, [(1R,2S,4R)-2-hydroxy-4-{[5-({1-[(4-methylpyridin-2-yl)methyl]-1H-pyrazol-3-yl}carbonyl)pyrimidin-4-yl]amino}cyclopentyl]methyl sulfamate] | < 10 nM | 99%
13 | NS(=O)(=O)OC[C@H]1C[C@@H](Nc2ccncc2C(=O)c2ccn(Cc3ccc(F)c(C(F)(F)F)c3)n2)C[C@@H]1O [Compound I-263, [(1R,2S,4R)-4-{[3-({1-[4-fluoro-3-(trifluoromethyl)benzyl]-1H-pyrazol-3-yl}carbonyl)pyridin-4-yl]amino}-2-hydroxycyclopentyl]methyl sulfamate] | < 10 nM | 91%
14 | NS(=O)(=O)OC[C@H]1C[C@@H](Nc2ncncc2C(=O)c2ccn(S(=O)(=O)c3cccc(Br)c3)c2)C[C@@H]1O [Compound I-255, [(1R,2S,4R)-4-{[5-({1-[(3-bromophenyl)sulfonyl]-1H-pyrrol-3-yl}carbonyl)pyrimidin-4-yl]amino}-2-hydroxycyclopentyl]methyl sulfamate] | < 10 nM | 97%
15 | NS(=O)(=O)OC[C@H]1C[C@@H](Nc2ncncc2C(=O)c2ccn(Cc3ccc(Cl)c(OC(F)(F)F)c3)n2)[C@H](O)[C@@H]1O [Compound I-100, [(1R,2R,3S,4R)-4-{[5-({1-[4-chloro-3-(trifluoromethoxy)benzyl]-1H-pyrazol-3-yl}carbonyl)pyrimidin-4-yl]amino}-2,3-dihydroxycyclopentyl]methyl sulfamate] | < 10 nM | 98%
16 | Cn1cc(C#CCn2ccc(C(=O)c3cncnc3N[C@@H]3C[C@H](COS(N)(=O)=O)[C@@H](O)C3)n2)cn1 [Compound I-308, [(1R,2S,4R)-2-hydroxy-4-{[5-({1-[3-(1-methyl-1H-pyrazol-4-yl)prop-2-yn-1-yl]-1H-pyrazol-3-yl}carbonyl)pyrimidin-4-yl]amino}cyclopentyl]methyl sulfamate] | 100 to 1000 nM | 27%
17 | NS(=O)(=O)OC[C@H]1C[C@@H](Nc2ncncc2C(=O)c2ccn(Cc3ccc(Cl)c(C(F)(F)F)c3)n2)C[C@@H]1O [Compound I-288, [(1R,2S,4R)-4-{[5-({1-[4-chloro-3-(trifluoromethyl)benzyl]-1H-pyrazol-3-yl}carbonyl)pyrimidin-4-yl]amino}-2-hydroxycyclopentyl]methyl sulfamate] | < 10 nM | 97%
18 | N#Cc1ccccc1Cn1ccc(C(=O)c2cncnc2N[C@@H]2C[C@H](COS(N)(=O)=O)[C@@H](O)[C@H]2O)n1 [Compound I-249, {(1R,2R,3S,4R)-4-[(5-{[1-(2-cyanobenzyl)-1H-pyrazol-3-yl]carbonyl}pyrimidin-4-yl)amino]-2,3-dihydroxycyclopentyl}methyl sulfamate] | < 10 nM | 97%
19 | NS(=O)(=O)OC[C@H]1C[C@@H](Nc2ncncc2C(=O)c2ccn(Cc3cc4ccccc4o3)n2)C[C@@H]1O [Compound I-17, {(1R,2S,4R)-4-[(5-{[1-(1-benzofuran-2-ylmethyl)-1H-pyrazol-3-yl]carbonyl}pyrimidin-4-yl)amino]-2-hydroxycyclopentyl}methyl sulfamate] | < 10 nM | 99%
20 | NS(=O)(=O)OC[C@H]1C[C@@H](Nc2ncncc2C(=O)c2ccn(C3(c4cccc(Cl)c4)CC3)c2)C[C@@H]1O [Compound I-264, [(1R,2S,4R)-4-{[5-({1-[1-(3-Chlorophenyl)cyclopropyl]-1H-pyrrol-3-yl}carbonyl)pyrimidin-4-yl]amino}-2-hydroxycyclopentyl]methyl sulfamate] | 10 to 100 nM | 90%
